Reference: article PMC7315563, “Bioactive fluorenes. Part III: 2,7-dichloro-9H-fluorene-based thiazolidinone and azetidinone analogues as anticancer and antimicrobial against multidrug resistant strains agents” (BMC Chemistry, 2020)
In brackets after ≈: the same amount, converted by molar mass.

How the values were obtained:
[1] = system: MDA-MB-231 human breast cancer cells; test: cell viability assay (MTT); type: cell-based; settings: 24 h; for viability at 1 µg/mL: read-out: Validity (%) for sample concentrations (µg/mL) 1; for viability at 10 µg/mL: read-out: Validity (%) for sample concentrations (µg/mL) 10; for viability at 31.25 µg/mL: read-out: Validity (%) for sample concentrations (µg/mL) 31.25; for viability at 62.5 µg/mL: read-out: Validity (%) for sample concentrations (µg/mL) 62.5; for viability at 125 µg/mL: read-out: Validity (%) for sample concentrations (µg/mL) 125; for viability at 250 µg/mL: read-out: Validity (%) for sample concentrations (µg/mL) 250; for viability at 500 µg/mL: read-out: Validity (%) for sample concentrations (µg/mL) 500
Method in brief: (§1)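 Cells were grown in RPMI-1640 with 10% heat-inactivated FBS, seeded at 5000 cells/well, and next day exposed to fluorene derivatives at 0, 1, 10, 31.25, 62.5, 125, 250 or 500 µg/mL for 24 h. Viability was then measured by MTT, absorbance at 570 nm.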

[2] = system: WI-38 human normal fibroblast cells; test: cell viability assay (MTT); type: cell-based; settings: 24 h; for viability at 31.25 µg/mL: read-out: Validity (%) for sample concentrations (µg/mL) 31.25; for viability at 62.5 µg/mL: 62.50 µg/mL, read-out: Validity (%) for sample concentrations (µg/mL) 62.50; for viability at 125 µg/mL: read-out: Validity (%) for sample concentrations (µg/mL) 125; for viability at 250 µg/mL: read-out: Validity (%) for sample concentrations (µg/mL) 250; for viability at 500 µg/mL: read-out: Validity (%) for sample concentrations (µg/mL) 500
Method in brief: as §1

S. aureus = test: MIC by broth microdilution method (resazurin end point); type: cell-based; settings: Staphylococcus aureus; S. aureus; 24 h at 37 °C; read-out: MIC
Protocol: (§2) Determination of Minimum inhibitory concentrations (MIC) of flourene derivatives was done using broth microdilution method. The procedure involved preparation of twofold dilutions of the fluorene derivatives ranging from (500–7.8 μg/mL) in sterile Mueller–Hinton broth inside the wells of 96-well microplate (Sarstedt, Germany). The inoculums of test strains prepared from fresh overnight cultures were adjusted to 0.5 McFarland standards, which equals to 1–2 × 10^8 CFU/mL for bacteria, the procedure was done according to CLSI 2012 [42]. […] For this assay the positive control agents were vancomycin (range: 0.7–50 μg/mL), gentamicin (range: 0.15–10 μg/mL) and the negative control was 1% DMSO.
(§3) For proper determination of the MIC end point resazurin dye has been used. A stock solution of resazurin sodium salt powder (Titan Biotech) was prepared at 0.02% (wt/vol) in distilled water, sterilized by filtration through a […] filter into a sterile light protected container then stored protected from light at 4 °C for up to 1 week, or at − […] for long term use, then 10–15% resazurin solution of the total volume in wells was added to each well and incubation for 1–4 h at 37 °C was done. A change in color from blue to pink indicates the growth of bacteria, and MIC was defined as the lowest concentration of the drug that prevented this change in color.

[3] = system: A549 human lung cancer cells; test: cell viability assay (MTT); type: cell-based; settings: 24 h; for viability at 1 µg/mL: read-out: Validity (%) for sample concentrations (µg/mL) 1; for viability at 10 µg/mL: read-out: Validity (%) for sample concentrations (µg/mL) 10; for viability at 31.25 µg/mL: read-out: Validity (%) for sample concentrations (µg/mL) 31.25; for viability at 62.5 µg/mL: 62.50 µg/mL, read-out: Validity (%) for sample concentrations (µg/mL) 62.50; for viability at 125 µg/mL: read-out: Validity (%) for sample concentrations (µg/mL) 125; for viability at 250 µg/mL: read-out: Validity (%) for sample concentrations (µg/mL) 250; for viability at 500 µg/mL: read-out: Validity (%) for sample concentrations (µg/mL) 500; for viability at 1000 µg/mL: read-out: Validity (%) for sample concentrations (µg/mL) 1000
[4] = system: Staphylococcus aureus (S. aureus), multidrug resistant clinical isolate; test: agar well diffusion assay; type: cell-based; settings: Staphylococcus aureus; S. aureus; 500 µg/mL of tested compound; 24 h
Method in brief: (§4)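 Multidrug-resistant clinical isolates swabbed on Mueller–Hinton agar at about 1–5 × 10^5 CFU/mL; 0.5 cm wells received 50 μL compound at 500 μg/mL in 1% DMSO. Incubation 24 h, 37 °C for bacteria and C. albicans, 25 °C for Aspergillus; inhibition zone diameter measured in mm.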

P. aeruginosa = test: MIC by broth microdilution method (resazurin end point); type: cell-based; settings: Pseudomonas aeruginosa, 24 h at 37 °C
Protocol: as §2, §3

E. coli = test: as above; type: cell-based; settings: Escherichia coli, 24 h at 37 °C
Protocol: as §2, §3

[5] = system: Pseudomonas aeruginosa (P. aeruginosa), multidrug resistant clinical isolate; test: agar well diffusion assay; type: cell-based; settings: 24 h, 500 µg/mL of tested compound
Method in brief: as §4

[6] = system: Escherichia coli (E. coli), multidrug resistant clinical isolate; test: agar well diffusion assay; type: cell-based; settings: 24 h, 500 µg/mL of tested compound
Method in brief: as §4

[7] = system: Acinetobacter baumannii (A. baumannii), multidrug resistant clinical isolate; test: agar well diffusion assay; type: cell-based; settings: 500 µg/mL of tested compound, 24 h
Method in brief: as §4

[8] = system: Klebsiella pneumoniae (K. pneumoniae), multidrug resistant clinical isolate; test: agar well diffusion assay; type: cell-based; settings: 24 h, 500 µg/mL of tested compound
Method in brief: as §4

[9] = system: methicillin-resistant Staphylococcus aureus (MRSA); test: agar well diffusion assay; type: cell-based; settings: Staphylococcus aureus, 500 µg/mL of tested compound, 24 h
Method in brief: as §4

Row | SMILES | viability at 1 µg/mL [1] [%] | viability at 10 µg/mL [1] [%] | viability at 31.25 µg/mL [1] [%] | viability at 62.5 µg/mL [1] [%] | viability at 125 µg/mL [1] [%] | viability at 250 µg/mL [1] [%] | viability at 500 µg/mL [1] [%] | IC50 [1] [µg/mL] | viability at 31.25 µg/mL [2] [%] | viability at 62.5 µg/mL [2] [%] | viability at 125 µg/mL [2] [%] | viability at 250 µg/mL [2] [%] | viability at 500 µg/mL [2] [%] | IC50 [2] [µg/mL] | viability at 1 µg/mL [3] [%] | viability at 10 µg/mL [3] [%] | viability at 31.25 µg/mL [3] [%] | viability at 62.5 µg/mL [3] [%] | viability at 125 µg/mL [3] [%] | viability at 250 µg/mL [3] [%] | other results
1 | COc1cc(C2SCC(=O)N2c2nc(-c3cc(Cl)cc4c3-c3ccc(Cl)cc3C4)cs2)ccc1O (stereo not shown) [5h, 3-(4-(2,7-Dichloro-9H-fluoren-4-yl)thiazol-2-yl)-2-(4-hydroxy-3-methoxyphenyl)thiazolidin-4-one] | 90.9 | 82.8 | 79.3 | 76.8 | 71.7 | 61.7 | 56.7 | > 500 | 95 | 81.7 | 78.7 | 72.8 | 66.2 | > 500 | 92.9 | 91.4 | 90.3 | 88.7 | 85.7 | 82.7 | MIC (S. aureus): 62.5 µg/mL (≈ 115 µM); viability at 500 µg/mL [3]: 77.2%; viability at 1000 µg/mL [3]: 68%; IC50 [3]: 1610 µg/mL (≈ 2970 µM); zone of inhibition at 500 µg/mL [4]: 11 mm; melting point: 85 to 87 °C
2 | O=C1CSC(c2ccco2)N1c1nc(-c2cc(Cl)cc3c2-c2ccc(Cl)cc2C3)cs1 (stereo not shown) [5j, 3-(4-(2,7-Dichloro-9H-fluoren-4-yl)thiazol-2-yl)-2-(furan-2-yl)thiazolidin-4-one] | 94.4 | 74.8 | 67 | 61.4 | 60.2 | 57.2 | 49.3 | 435 (≈ 896 µM) | 84.2 | 66.1 | 61.5 | 39.1 | 38.5 | 196 (≈ 404 µM) | 92.9 | 84.6 | 83.6 | 82.5 | 81.6 | 77.5 | MIC (P. aeruginosa): 62.5 µg/mL (≈ 129 µM); MIC (E. coli): 62.5 µg/mL (≈ 129 µM); viability at 500 µg/mL [3]: 71.4%; viability at 1000 µg/mL [3]: 52.5%; IC50 [3]: 1050 µg/mL (≈ 2150 µM); zone of inhibition at 500 µg/mL [5]: 8 mm; zone of inhibition at 500 µg/mL [6]: 10 mm; zone of inhibition at 500 µg/mL [4]: 6 mm; melting point: 139 to 141 °C
3 | CN(C)c1ccc(C2C(Cl)C(=O)N2c2nc(-c3cc(Cl)cc4c3-c3ccc(Cl)cc3C4)cs2)cc1 (stereo not shown) [6e, 3-Chloro-1-(4-(2,7-dichloro-9H-fluoren-4-yl)thiazol-2-yl)-4-(4-(dimethylamino)phenyl)-azetidin-2-one] | 98.2 | 90.2 | 89.9 | 85.2 | 69.2 | 41.9 | 39.4 | 215 (≈ 397 µM) | 68.8 | 52.5 | 45.6 | 38.6 | 26.8 | 65.4 (≈ 121 µM) | 95.4 | 90.3 | 87.5 | 81.7 | 71.1 | 50.7 | MIC (S. aureus): 62.5 µg/mL (≈ 116 µM); viability at 500 µg/mL [3]: 33.2%; viability at 1000 µg/mL [3]: 28.8%; IC50 [3]: 276 µg/mL (≈ 510 µM); zone of inhibition at 500 µg/mL [4]: 12 mm; melting point: 110 to 111 °C
4 | O=C1C(Cl)C(c2ccc([N+](=O)[O-])cc2)N1c1nc(-c2cc(Cl)cc3c2-c2ccc(Cl)cc2C3)cs1 (stereo not shown) [6f, 3-Chloro-1-(4-(2,7-dichloro-9H-fluoren-4-yl)thiazol-2-yl)-4-(4-nitrophenyl)azetidin-2-one] | 91.8 | 89.6 | 83 | 72.4 | 59.7 | 37.2 | 28.9 | 188 (≈ 346 µM) | 49 | 44.8 | 35.6 | 32.3 | 30.4 | 29 (≈ 53.4 µM) | 91.3 | 89.8 | 86.2 | 83.2 | 67.3 | 46.6 | viability at 500 µg/mL [3]: 38.6%; viability at 1000 µg/mL [3]: 25.4%; IC50 [3]: 230 µg/mL (≈ 424 µM); zone of inhibition at 500 µg/mL [7]: 5 mm; zone of inhibition at 500 µg/mL [4]: 10 mm; melting point: 114 to 116 °C
5 | O=C1C(Cl)C(c2ccncc2)N1c1nc(-c2cc(Cl)cc3c2-c2ccc(Cl)cc2C3)cs1 (stereo not shown) [6m, 3-Chloro-1-(4-(2,7-dichloro-9H-fluoren-4-yl)thiazol-2-yl)-4-(pyridin-4-yl)azetidin-2-one] | 93.2 | 89.9 | 77.6 | 73.2 | 67.1 | 63.4 | 59.5 | > 500 | 78.5 | 72.8 | 68.5 | 63 | 55.7 | > 500 | 91.5 | 81.8 | 67.6 | 65.9 | 62.7 | 58.7 | MIC (E. coli): 15.6 µg/mL (≈ 31.3 µM); viability at 500 µg/mL [3]: 54.1%; viability at 1000 µg/mL [3]: 49.8%; IC50 [3]: 830 µg/mL (≈ 1660 µM); zone of inhibition at 500 µg/mL [6]: 27 mm; zone of inhibition at 500 µg/mL [4]: 4 mm; zone of inhibition at 500 µg/mL [8]: 3 mm; zone of inhibition at 500 µg/mL [9]: 6 mm; melting point: 249 to 250 °C
